Patent US20220281930A1, “COMPOSITIONS AND METHODS FOR THE TREATMENT OF PATHOLOGICAL PAIN AND ITCH” (DUKE UNIVERSITY, priority 2019, published 2022)

Columns and labels:
[1] = test system: KCC2; test: Composite score from primary and secondary screening; format: cell-based, mouse; conditions: Natural Compounds
Method: The primary screen encompassed three levels of LUC measurements. The first level of screening yielded a total of 137 compounds with cut-off RLU>125% LUC activity. These 137 compounds were subject to second round of screening, which was carried out in duplicate independent assays to yield the top 103 compounds sorted for highest RLU. The 103 compounds were then subjected to a third round of screening carried out in duplicate independent assays to yield the top 40 compounds which were again ranked. The best 22 of these 40 compounds (ranked for highest RLU activity) were subjected to secondary screening: Cultured neurons were treated with the 22 compounds; RT-qPCR and Clomeleon imaging methodologies (Yeo et al., 2009, J Neurosci 29:14652-14662) were used to determine effects of compounds on KCC2 mRNA expression and [Cl—]i, respectively. Each compound was ranked based on composite scores from primary and secondary screening.
To identify KCC2 gene expression enhancing compounds, cultured primary cortical neurons were cultured from KCC2-luciferase(LUC)-knockin (KCC2-LUCki) mice (Liedtke et al., 2013, Small 9:1066-1075; Yeo et al., 2013, Proc Natl Acad Sci USA 110:4315-4320) and used LUC metrics as readout for activity of the proximal KCC2 promoter (2.5 kB (Yeo et al., 2009, J Neurosci 29:14652-14662)), which drives LUC in this mouse transgenic line. A Z′ factor of 0.94 was obtained. This strategy will not select for long-range enhancers of KCC2 gene expression that act outside the 2.5 kB core KCC2 promoter. 1057 compounds, contained in two NCI libraries (FIG. 1), related to inhibition of growth of malignantly transformed cells were screened. Iterative screening followed by measurements of KCC2 mRNA (RT-qPCR) and intracellular chloride ([Cl—]i), using clomeleon chloride indicator protein (Kuner and Augustine, 2000, Neuron 27:447-459; Yeo et al., 2009, J Neurosci 29:14652-14662), led to decreasing numbers of confirmed and re-confirmed hits, and 4 “winner” compounds were selected (FIG. 1 and Table 3).

[2] = biological target: T1, GSK3β (Rattus norvegicus, UniProt P18266); test: DARTS assay, GSK3β; format: binding; conditions: 20 μM KP; independent of detergent treatment
T1 construct: endogenous in cells; host or cells: primary rat cortical neurons
Method: Cultured primary rat cortical neurons were treated with either vehicle DMSO (0.1%) or 20 μM KP for 30 h. Cells were lysed in ice-cold lysis buffer (Tris.Cl pH8 50 mM, NaCl 150 mM, NP40 0.5%, N-dodecyl-b-D-maltoside 0.5%, Phosphatase Inhibitor (Pierce #88667) and Protease Inhibitor (Roche #11836153001)). Protein concentrations were determined by Bio-Rad DC Protein Assay kit using bovine albumin as standard. All steps were performed on ice. Samples were warmed to room temperature and digested with pronase (final concentration 1:500) for 30 min at 30° C. Digestion was halted using 0.5M EDTA. Only proteins not bound to KP were digested. The protein mixture was dialyzed using dialysis cassettes (Thermo Fisher 66203, 2K MWCO) and analyzed by LC-MS/MS method to identify proteins that are bound to KP, the latter step carried out in the Duke Proteomics Core Laboratory.
A drug affinity responsive target stability (DARTS) assay (Lomenick, et al., 2009, Proc Natl Acad Sci USA 106:21984-21989) was used to study direct binding of KP to GSK3ß (FIG. 8A) in primary cortical neurons. The findings were consistent with previous reports in cell lines (Knockaert, et al., 2002, The Journal of biological chemistry 277:25493-25501) yet novel in primary neurons. […]

[3] = test system: KCC2 mRNA; test: KCC2 mRNA RT-qPCR in primary human cortical neurons; format: cell-based; conditions: KP 50, 100, 400 nM, 48 h
Method: The neuron-enriched cultures were established from fetal cortical specimens at 15-20 weeks of gestation. The protocols for tissue processing complied with all federal and institutional guidelines. The cultures were plated on PEI (polyethyleneimine solution) substrate and maintained in Neurobasal media supplemented with B27 as previously described (Pelsman et al., 2003, International journal of developmental neuroscience 21:117-124; Yeo et al., 2013, Proc Natl Acad Sci USA 110:4315-4320).
For RT-qPCR, the cell pellets were collected after treatments with vehicle (0.1% DMSO) or KP (50, 100, and 400 nM) for 48 h starting at day 6 in vitro.
Total RNA was isolated from cultured cell samples using Directzol RNA miniprep kit (ZymoResearch). The protocol includes DNAse digestion to exclude genomic DNA from preparations. Total RNA (1 μg) was reverse transcribed using oligo primers (dT) and SuperScriptIII first-strand synthesis kit (Invitrogen). Gene expression was assessed by quantitative real-time PCR using 2×SYBR Green Master Mix (Qiagen) and a three-step cycling protocol (anneal at 60° C./elongate at 72° C., denature at 95° C.). […] The amount of target messenger RNA (mRNA) in the experimental group relative to that in the control was determined from the resulting fluorescence and threshold values (Ct) using the ΔΔCt method. βIII-tubulin was used as housekeeping gene. […]

T1 sequence (P18266 whole entry): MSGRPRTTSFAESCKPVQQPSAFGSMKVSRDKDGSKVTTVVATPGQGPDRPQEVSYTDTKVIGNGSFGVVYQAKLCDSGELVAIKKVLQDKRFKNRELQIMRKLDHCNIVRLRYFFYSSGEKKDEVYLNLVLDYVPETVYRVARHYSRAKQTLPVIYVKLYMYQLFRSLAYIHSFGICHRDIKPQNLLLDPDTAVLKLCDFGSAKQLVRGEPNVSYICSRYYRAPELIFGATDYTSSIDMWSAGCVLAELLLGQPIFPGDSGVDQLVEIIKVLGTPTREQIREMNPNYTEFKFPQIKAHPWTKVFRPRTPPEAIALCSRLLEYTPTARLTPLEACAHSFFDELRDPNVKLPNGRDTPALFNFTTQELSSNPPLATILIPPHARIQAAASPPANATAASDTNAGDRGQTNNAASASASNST

In the case of O=C1Cc2c([nH]c3ccc(Br)cc23)-c2ccccc2N1 [kenpaullone, 9-bromo-7,12-dihydro-indolo [3,2-d] [1]benzazepin-6(5H)-one], the “Top 2 hits” value [1] is reported as “winner”, the “Total Score” value ([1]; sum of the three scores) is reported as 6 and the “binding of KP to GSK3ß” value [2] is reported as “documented”. For the same compound, the “KCC2 mRNA” value [3] was “increases in a dose-dependent manner”.
